# From patent US8399462B2, “JNK modulators” (Roche Palo Alto LLC, priority 2006, dated 2013)
row,melting point,SMILES
1,208.8 to 209.6 °C,"CN([C@H]1CC[C@H](Nc2nccc(-n3ncc4c(OCCCS(C)(=O)=O)cccc43)n2)CC1)S(C)(=O)=O [Compound 158, N-(4-{4-[4-(3-methane-sulfonyl-propoxy)-indazol-1-yl]-pyrimidin-2-ylamino}-cyclohexyl)-N-methyl-methane-sulfonamide]"
2,222 to 223 °C,"CC(C)Oc1cccc2c1cnn2-c1ccnc(N[C@H]2CC[C@H](N(C)S(C)(=O)=O)CC2)n1 [Compound 189, N-{4-[4-(4-isopropoxy-indazol-1-yl)-pyrimidin-2-ylamino]-cyclohexyl}-N-methyl-methanesulfonamide]"
3,289 to 290 °C,"CN([C@H]1CC[C@H](Nc2nccc(-n3cc(C#N)c4ccccc43)n2)CC1)S(C)(=O)=O [Compound 248, N-{4-[4-(3-cyano-indol-1-yl)-pyrimidin-2-ylamino]-cyclohexyl}-N-methyl-methane-sulfonamide]"
4,264 to 265 °C,"CC(=O)N[C@H]1CC[C@H](Nc2nccc(-n3ccc4c(S(C)(=O)=O)cccc43)n2)CC1 [Compound 218, N-{4-[4-(4-methane-sulfonyl-indol-1-yl)-pyrimidin-2-ylamino]-cyclohexyl}-acetamide]"
5,213 to 214.5 °C,"CC(C)(CO)COc1cccc2c1cnn2-c1ccnc(N[C@H]2CC[C@H](C(=O)N3CCC(O)CC3)CC2)n1 [Compound 227, (4-{4-[4-(3-hydroxy-2,2-dimethylpropoxy)-indazol-1-yl]-pyrimidin-2-ylamino}-cyclohexyl)-(4-hydroxy-piperidin-1-yl)-methanone]"
6,171 to 172 °C,"CC(C)(O)[C@H]1CC[C@H](Nc2nccc(-n3ncc4c(OCCCNS(C)(=O)=O)cccc43)n2)CC1 [Compound 210, N-[3-(1-{2-[4-(2-hydroxyprop-2-yl)-cyclohexylamino]-pyrimidin-4-yl}-1H-indazol-4-yloxy)-propyl]-methane-sulfonamide]"
7,203 to 205 °C,"COCCOc1cccc2c1ccn2-c1ccnc(N[C@H]2CC[C@H](NS(C)(=O)=O)CC2)n1 [Compound 221, N-(4-{4-[4-(2-methoxy-ethoxy)-indol-1-yl]-pyrimidin-2-ylamino}-cyclohexyl)-methanesulfonamide]"
8,162 to 163 °C,"COC1CN(C(=O)[C@H]2CC[C@H](Nc3nccc(-n4ccc5c(OCCCS(C)(=O)=O)cccc54)n3)CC2)C1 [Compound 274, (4-{4-[4-(3-methane-sulfonyl-propoxy)-indol-1-yl]-pyrimidin-2-ylamino}-cyclohexyl)-(3-methoxy-azetidin-1-yl)-methanone]"
9,259 to 261 °C,"O=C(O)c1cccc2c1ccn2-c1ccnc(N[C@H]2CC[C@H](O)CC2)n1 [Example 7, trans-1-[2-(4-Hydroxy-cyclohexylamino)-pyrimidin-4-yl]-1H-indole-4-carboxylic acid]"
10,215 to 215.5 °C,O=C([C@H]1CC[C@H](Nc2nccc(-n3ccc4c(OCC(O)CC(F)(F)F)cccc43)n2)CC1)N1CCC(O)CC1 (some centres unmarked) [Compound 288]
11,174 to 176.9 °C,"CC(C)(O)COc1cccc2c1ccn2-c1ccnc(N[C@H]2CC[C@H](C(=O)N3CCC(O)CC3)CC2)n1 [Compound 281, (4-{4-[4-(2-hydroxy-2-methyl-propoxy)-indol-1-yl]-pyrimidin-2-yl-amino}-cyclohexyl)-(4-hydroxy-piperidin-1-yl)-methanone]"
12,229.5 to 231 °C,"CC(C)(O)[C@H]1CC[C@H](Nc2nccc(-n3ncc4c(OCCCO)cccc43)n2)CC1 [Compound 183, 3-(1-{2-[4-(2-hydroxy-prop-2-yl)-cyclohexyl-amino]-pyrimidin-4-yl}-1H-indazol-4-yloxy)-propan-1-ol]"
13,259 to 259.5 °C,"CN([C@H]1CC[C@H](Nc2nccc(-n3ncc4c(OCCCNS(C)(=O)=O)cccc43)n2)CC1)S(C)(=O)=O [Compound 197, N-[3-(1-{2-[4-(methane-sulfonyl-methylamino)-cyclohexylamino]-pyrimidin-4-yl}-1H-indazol-4-yloxy)-propyl]-methane-sulfonamide]"
14,265.5 to 270 °C,"O[C@H]1CC[C@H](Nc2nccc(-c3n[nH]c4c(C(F)(F)F)cccc34)n2)CC1 [Example 3, trans-4-[4-(7-Trifluoromethyl-1H-indazol-3-yl)-pyrimidin-2-yl-amino]-cyclohexanol]"
15,216 to 217.7 °C,"OCc1ccc2cnn(-c3ccnc(N[C@H]4CC[C@H](O)CC4)n3)c2c1 [Example 20, trans-4-[4-(6-Hydroxymethylindazol-1-yl)-pyrimidin-2-ylamino]-cyclohexanol]"
16,269.6 to 270.4 °C,"CS(=O)(=O)N[C@H]1CC[C@H](Nc2nccc(-n3ncc4ccccc43)n2)CC1 [Example 12, trans-N-[4-(4-Indazol-1-ylpyrimidin-2-ylamino)-cyclohexyl]-methanesulfonamide]"
17,149 to 150 °C,"CN([C@H]1CC[C@H](Nc2nccc(-n3ccc4c(C(C)(C)O)cccc43)n2)CC1)S(C)(=O)=O [Compound 161, N-(4-{4-[4-(1-hydroxy-1-methyl-ethyl)-indol-1-yl]-pyrimidin-2-yl-amino}-cyclohexyl)-N-methyl-methane-sulfonamide]"
18,212 to 213.3 °C,"OCc1cccc2c1ccn2-c1ccnc(N[C@H]2CC[C@H](O)CC2)n1 [Example 10, trans-4-[4-(4-Hydroxymethylindol-1-yl)-pyrimidin-2-ylamino]-cyclohexanol]"
19,246.6 to 248.2 °C,"CN(C1CCC(Nc2nccc(-n3cc(S(N)(=O)=O)c4ccccc43)n2)CC1)S(C)(=O)=O (centres unmarked) [Compound 321, 1-{2-[4-(methanesulfonyl-methyl-amino)-cyclohexylamino]-pyrimdin-4-yl}-1H-indole-3-sulfonic acid amide]"
20,227.5 to 228.5 °C,"CC(C)(C)OC(=O)N[C@H]1CC[C@H](Nc2nccc(-n3ccc4c(OCCCS(C)(=O)=O)cccc43)n2)CC1 [Compound 181, (4-{4-[4-(3-methane-sulfonyl-propoxy)-indol-1-yl]-pyrimidin-2-ylamino}-cyclohexyl)-carbamic acid t-butyl ester]"

# Second part, the compound before the results:
row,SMILES,melting point
1,"Cn1nc(-c2ccnc(N[C@H]3CC[C@H](O)CC3)n2)c2ccccc21 [Compound 77, 4-[4-(1-methyl-1H-indazol-3-yl)pyridimidin-2-ylamino]-cyclo-hexanol]",180 to 183.3 °C
2,"CN(c1cccc2c1ccn2-c1ccnc(N[C@H]2CC[C@H](O)CC2)n1)S(C)(=O)=O [Compound 92, N-{1-[2-(4-hydroxy-cyclohexylamino)-pyrimidin-4-yl]-1H-indol-4-yl}-N-methyl-methanesulfonamide]",235.8 to 236.2 °C
3,"COc1cccc2c1cnn2-c1ccnc(N[C@H]2CC[C@H](NS(C)(=O)=O)CC2)n1 [Compound 126, N-{4-[4-(4-methoxy-indazol-1-yl)-pyrimidin-2-ylamino]-cyclohexyl}-methanesulfonamide]",291.5 to 292.5 °C
4,"CC(O)c1cccc2c1ccn2-c1ccnc(N[C@H]2CC[C@H](NS(=O)(=O)N(C)C)CC2)n1 (some centres unmarked) [Compound 137, N-(N′,N′-dimethylsulfonamido) N-{4-[4-(1-hydroxyethyl)-indol-1-yl-pyrimidin-2-yl-amino]-cyclohexyl} amine]",> 300 °C
5,"N[C@H]1CC[C@H](Nc2nccc(-n3ccc4ccccc43)n2)CC1 [Compound 52, N-(4-indol-1-yl-pyrimidin-2-yl)-cyclo-hexane-1,4-diamine]",270.1 to 273.3 °C
6,"CNC(=O)COc1cccc2c1cnn2-c1ccnc(N[C@H]2CC[C@H](C(=O)N(C)C)CC2)n1 [Compound 124, 4-[4-(4-methylcarba-moylmethoxy-indazol-1-yl)-pyrimidin-2-yl-amino]-cyclohexane-carboxylic acid dimethylamide]",183 to 185 °C
7,"N#CCc1cccc2c1ccn2-c1ccnc(N[C@H]2CC[C@H](O)CC2)n1 [Compound 101, {1-[2-(4-hydroxy-cyclo-hexylamino)-pyrimidin-4-yl]-1H-indol-4-yl}-acetonitrile]",207 to 209 °C
8,"CC1(C)OC[C@@H](COc2cccc3c2cnn3-c2ccnc(N[C@H]3CC[C@H](NS(C)(=O)=O)CC3)n2)O1 (stereo in doubt) [Compound 128, N-(4-{4-[4-(2,2-di-methyl[1,3]dioxolan-4-ylmethoxy)-indazol-1-yl]-pyrimidin-2-yl-amino}-cyclohexyl)-methanesulfonamide]",247 to 247.8 °C
9,"OCC(O)COc1ccc2cnn(-c3ccnc(N[C@H]4CC[C@H](O)CC4)n3)c2c1 (some centres unmarked) [Compound 93, 3-{1-[2-(4-hydroxy-cyclohexylamino)-pyrimidin-4-yl]-1H-indazol-6-yloxy}-propane-1,2-diol]",223.8 to 224.7 °C
10,"O=C([C@H]1CC[C@H](Nc2nccc(-n3ncc4c(OCCO)cccc43)n2)CC1)N1CCCC1 [Compound 151, (4-{4-[4-(2-hydroxy-ethoxy)-indazol-1-yl]-pyrimidin-2-ylamino}-cyclohexyl)-pyrrolidin-1-ylmethanone]",164 to 166 °C
11,Cl.NC[C@H]1CC[C@H](Nc2nccc(-n3ccc4c(OCCCC(F)(F)F)cccc43)n2)CC1,274 to 275 °C
12,"CC(C)COc1cccc2c1cnn2-c1ccnc(N[C@H]2CC[C@H](O)CC2)n1 [Compound 169, 4-[4-(4-isobutoxy-indazol-1-yl)-pyrimidin-2-ylamino]-cyclohexanol]",189.3 to 190.3 °C
13,"CN(C)S(=O)(=O)N[C@H]1CC[C@H](Nc2nccc(-n3ncc4ccccc43)n2)CC1 [Compound 136, Dimethyl sulfonamide [4-(4-indazol-1-yl)-pyrimidin-2-ylamino]-cyclohexyl amine]",238.5 to 239.7 °C
14,"CS(=O)(=O)CCCOc1cccc2c1cnn2-c1ccnc(N[C@H]2CC[C@H](C(=O)N3CCCC3)CC2)n1 [Compound 155, (4-{4-[4-(3-methane-sulfonyl-propoxy)-indazol-1-yl]-pyrimidin-2-ylamino}-cyclohexyl)-pyrrolidin-1-ylmethanone]",183.4 to 184.5 °C
15,"CC(C)COc1cccc2c1cnn2-c1ccnc(N[C@H]2CC[C@H](N(C)S(C)(=O)=O)CC2)n1 [Compound 191, N-{4-[4-(4-isobutoxy-indazol-1-yl)-pyrimidin-2-ylamino]-cyclohexyl}-N-methyl-methanesulfonamide]",227 to 228 °C
